Data as given in paper PMC9394474 (Viruses, 2022).
Where “and” joins values, the source holds several entries; their conditions need not be identical. Equal values may be shown once. Read-outs that look alike come from different tables or passages of the source. Ends that are not written are not given here. Peptide text beside a SMILES is read from it.

Target: human hisTRIM7-PRYSPRY (Homo sapiens, UniProt Q9C029)
Test: ITC binding to human TRIM7 PRYSPRY (wild type)

| Compound | Kd | Kd (KD, ITC, one-site model, 15 °C, 50 mM phosphate pH 6.5, 1 mM DTT, TRIM7 500 µM, ligand 100 µM (peptide 50 µM), representative trace and fit) |
| --- | --- | --- |
| CC(C)C[C@H](N)C(=O)N[C@@H](CCC(N)=O)C(=O)O [LQ] (H-Leu-Gln-OH) | 201 ± 30 µM | – |
| AAAAALQ [polyA-LQ] | 8.92 µM and 8 µM | – |
| AIEALFQ [AIEALFQ] | 17 ± 4.3 µM | – |
| DNIKKKLDTYLQ [rbGYG322-333] | – | 21 ± 1.8 µM |
| CC(=O)N[C@@H](CC(C)C)C(=O)N[C@@H](CC(C)C)C(=O)N[C@@H](CCC(N)=O)C(=O)O [Ac-LLQ] (Ac-Leu-Leu-Gln-OH) | 38.7 ± 5.16 µM | – |
